Assay results taken from PMC11249646, “Small-Molecule Disruptors of the Interaction between Calcium- and Integrin-Binding Protein 1 and Integrin αIIbβ3 as Novel Antiplatelet Agents” (ACS Pharmacology & Translational Science, 2024).

Target: T1, GST-CIB1 : F-scrambled peptide (Homo sapiens, UniProt Q99828)
T1 construct: made in house; host or cells: BL-21 plus RIL cells (E. coli)
T1 sequence (Q99828 1-191): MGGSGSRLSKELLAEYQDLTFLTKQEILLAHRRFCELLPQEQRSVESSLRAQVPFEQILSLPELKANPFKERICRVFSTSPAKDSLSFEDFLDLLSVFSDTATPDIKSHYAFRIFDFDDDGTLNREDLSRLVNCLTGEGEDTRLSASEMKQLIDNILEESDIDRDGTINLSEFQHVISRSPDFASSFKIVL
Experiment: FP scrambled-peptide counter screen, 384-well format
Type: binding
Conditions: F-scrambled peptide

| Compound | 384-well COUNTERSCREEN Efficacy (%) |
| --- | --- |
| O=C(CN(c1cccc(Br)c1)S(=O)(=O)c1ccccc1)NN=CC1=CC(=[N+]([O-])O)C=CC1=O.O=C(O)C(F)(F)F [NCGC00248455-01] | 52 |
| N#Cc1cnc(NS(=O)(=O)c2ccc(NC(=O)Cc3ccc(Cl)c(Cl)c3)cc2)s1.O=C(O)C(F)(F)F [NCGC00250147-02] | 25 |

Same assay, conditions: F-scrambled peptide; *: Curve in opposite direction

| Compound | 384-well COUNTERSCREEN Confirm? |
| --- | --- |
| N#Cc1cnc(NS(=O)(=O)c2ccc(NC(=O)Cc3ccc(Cl)c(Cl)c3)cc2)s1.O=C(O)C(F)(F)F [NCGC00250147-02] | YES |

Same assay, conditions: F-scrambled peptide; read-out: 384-well COUNTERSCREEN IC50

| Compound | IC50 [µM] |
| --- | --- |
| O=C(CN(c1cccc(Br)c1)S(=O)(=O)c1ccccc1)NN=CC1=CC(=[N+]([O-])O)C=CC1=O.O=C(O)C(F)(F)F [NCGC00248455-01] | 15.8 |
| N#Cc1cnc(NS(=O)(=O)c2ccc(NC(=O)Cc3ccc(Cl)c(Cl)c3)cc2)s1.O=C(O)C(F)(F)F [NCGC00250147-02] | > 120 |

Target: T2, CIB1 and αIIb interaction (CIB1-GST : F-αIIb peptide) (Homo sapiens, UniProt Q99828)
T2 construct: made in house; host or cells: BL-21 plus RIL cells (E. coli)
T2 sequence (Q99828 1-191): T1 sequence (Q99828 1-191)
Experiment: FP assay, 1536-well qHTS format (primary and confirmatory screen)
Type: binding
Conditions: confirmatory screen, YES/NO call

| Compound | CONFIRMATORY SCREEN Confirm? |
| --- | --- |
| O=C(CN(c1cccc(Br)c1)S(=O)(=O)c1ccccc1)NN=CC1=CC(=[N+]([O-])O)C=CC1=O.O=C(O)C(F)(F)F [NCGC00248455-01] | YES |
| N#Cc1cnc(NS(=O)(=O)c2ccc(NC(=O)Cc3ccc(Cl)c(Cl)c3)cc2)s1.O=C(O)C(F)(F)F [NCGC00250147-02] | YES |

Same assay, conditions: confirmatory screen, qHTS curve class; negative sign = inhibitory curve

| Compound | CONFIRMATORY SCREEN Curve Class |
| --- | --- |
| O=C(CN(c1cccc(Br)c1)S(=O)(=O)c1ccccc1)NN=CC1=CC(=[N+]([O-])O)C=CC1=O.O=C(O)C(F)(F)F [NCGC00248455-01] | -2.1 |
| N#Cc1cnc(NS(=O)(=O)c2ccc(NC(=O)Cc3ccc(Cl)c(Cl)c3)cc2)s1.O=C(O)C(F)(F)F [NCGC00250147-02] | -1.2 |

Same assay, conditions: confirmatory screen; negative = inhibition

| Compound | CONFIRMATORY SCREEN Efficacy (%) |
| --- | --- |
| O=C(CN(c1cccc(Br)c1)S(=O)(=O)c1ccccc1)NN=CC1=CC(=[N+]([O-])O)C=CC1=O.O=C(O)C(F)(F)F [NCGC00248455-01] | -91 |
| N#Cc1cnc(NS(=O)(=O)c2ccc(NC(=O)Cc3ccc(Cl)c(Cl)c3)cc2)s1.O=C(O)C(F)(F)F [NCGC00250147-02] | -48 |

Same assay, conditions: confirmatory screen; read-out: CONFIRMATORY SCREEN IC50

| Compound | IC50 [µM] |
| --- | --- |
| O=C(CN(c1cccc(Br)c1)S(=O)(=O)c1ccccc1)NN=CC1=CC(=[N+]([O-])O)C=CC1=O.O=C(O)C(F)(F)F [NCGC00248455-01] | 31.6 |
| N#Cc1cnc(NS(=O)(=O)c2ccc(NC(=O)Cc3ccc(Cl)c(Cl)c3)cc2)s1.O=C(O)C(F)(F)F [NCGC00250147-02] | 6.3 |

Same assay, conditions: qHTS FP screen hits, Table S2; negative = inhibition

| Compound | Efficacy (%) |
| --- | --- |
| N#Cc1cnc(NS(=O)(=O)c2ccc(NC(=O)Cc3ccc(Cl)c(Cl)c3)cc2)s1.O=C(O)C(F)(F)F [NCGC00250147-02] | -40 |

Same assay, conditions: qHTS FP screen hits, Table S2; one class per curve where COUNT > 1; negative sign = inhibitory curve

| Compound | Curve Class |
| --- | --- |
| N#Cc1cnc(NS(=O)(=O)c2ccc(NC(=O)Cc3ccc(Cl)c(Cl)c3)cc2)s1.O=C(O)C(F)(F)F [NCGC00250147-02] | -1.2 |

Same assay, conditions: qHTS FP screen hits, Table S2; read-out: IC50

| Compound | IC50 [µM] |
| --- | --- |
| N#Cc1cnc(NS(=O)(=O)c2ccc(NC(=O)Cc3ccc(Cl)c(Cl)c3)cc2)s1.O=C(O)C(F)(F)F [NCGC00250147-02] | 5.6 |

Same assay, conditions: qHTS primary screen hits, Table S2; negative = inhibition

| Compound | Efficacy (%) |
| --- | --- |
| O=C(CN(c1cccc(Br)c1)S(=O)(=O)c1ccccc1)NN=CC1=CC(=[N+]([O-])O)C=CC1=O.O=C(O)C(F)(F)F [NCGC00248455-01] | -62 |

Same assay, conditions: qHTS primary screen hits, Table S2; negative sign = inhibitory curve

| Compound | Curve Class |
| --- | --- |
| O=C(CN(c1cccc(Br)c1)S(=O)(=O)c1ccccc1)NN=CC1=CC(=[N+]([O-])O)C=CC1=O.O=C(O)C(F)(F)F [NCGC00248455-01] | -2.2 |

Same assay, conditions: qHTS primary screen hits, Table S2; read-out: IC50

| Compound | IC50 [µM] |
| --- | --- |
| O=C(CN(c1cccc(Br)c1)S(=O)(=O)c1ccccc1)NN=CC1=CC(=[N+]([O-])O)C=CC1=O.O=C(O)C(F)(F)F [NCGC00248455-01] | 17.8 |

Target: T3, CIB1 and αIIb interaction (GST-CIB1 : F-αIIb peptide) (Homo sapiens, UniProt Q99828)
T3 construct: made in house; host or cells: BL-21 plus RIL cells (E. coli)
T3 sequence (Q99828 1-191): T1 sequence (Q99828 1-191)
Experiment: FP assay, 384-well format (screen)
Type: binding
Design: 384-well SCREEN Efficacy (%): concentration or dose not given beside the values
Conditions: F-αIIb peptide

| Compound | 384-well SCREEN Efficacy (%) |
| --- | --- |
| O=C(CN(c1cccc(Br)c1)S(=O)(=O)c1ccccc1)NN=CC1=CC(=[N+]([O-])O)C=CC1=O.O=C(O)C(F)(F)F [NCGC00248455-01] | 40 |
| N#Cc1cnc(NS(=O)(=O)c2ccc(NC(=O)Cc3ccc(Cl)c(Cl)c3)cc2)s1.O=C(O)C(F)(F)F [NCGC00250147-02] | 42 |

Same assay, conditions: F-αIIb peptide; YES/NO

| Compound | 384-well SCREEN Confirm? |
| --- | --- |
| O=C(CN(c1cccc(Br)c1)S(=O)(=O)c1ccccc1)NN=CC1=CC(=[N+]([O-])O)C=CC1=O.O=C(O)C(F)(F)F [NCGC00248455-01] | YES |
| N#Cc1cnc(NS(=O)(=O)c2ccc(NC(=O)Cc3ccc(Cl)c(Cl)c3)cc2)s1.O=C(O)C(F)(F)F [NCGC00250147-02] | YES |

Same assay, conditions: F-αIIb peptide; read-out: 384-well SCREEN IC50

| Compound | IC50 [µM] |
| --- | --- |
| O=C(CN(c1cccc(Br)c1)S(=O)(=O)c1ccccc1)NN=CC1=CC(=[N+]([O-])O)C=CC1=O.O=C(O)C(F)(F)F [NCGC00248455-01] | 11.2 |
| N#Cc1cnc(NS(=O)(=O)c2ccc(NC(=O)Cc3ccc(Cl)c(Cl)c3)cc2)s1.O=C(O)C(F)(F)F [NCGC00250147-02] | 7.9 |

Target: T1, GST-CIB1 : F-scrambled peptide
Experiment: FP scrambled-peptide counter screen, 1536-well format
Type: binding
Conditions: scrambled-peptide counterscreen

| Compound | COUNTERSCREEN Efficacy (%) |
| --- | --- |
| O=C(CN(c1cccc(Br)c1)S(=O)(=O)c1ccccc1)NN=CC1=CC(=[N+]([O-])O)C=CC1=O.O=C(O)C(F)(F)F [NCGC00248455-01] | -13 |
| N#Cc1cnc(NS(=O)(=O)c2ccc(NC(=O)Cc3ccc(Cl)c(Cl)c3)cc2)s1.O=C(O)C(F)(F)F [NCGC00250147-02] | 20 |

Same assay, conditions: scrambled-peptide counterscreen, YES/NO call

| Compound | COUNTERSCREEN Confirm? |
| --- | --- |
| O=C(CN(c1cccc(Br)c1)S(=O)(=O)c1ccccc1)NN=CC1=CC(=[N+]([O-])O)C=CC1=O.O=C(O)C(F)(F)F [NCGC00248455-01] | YES |
| N#Cc1cnc(NS(=O)(=O)c2ccc(NC(=O)Cc3ccc(Cl)c(Cl)c3)cc2)s1.O=C(O)C(F)(F)F [NCGC00250147-02] | YES |

Same assay, conditions: scrambled-peptide counterscreen, qHTS curve class

| Compound | COUNTERSCREEN Curve Class |
| --- | --- |
| O=C(CN(c1cccc(Br)c1)S(=O)(=O)c1ccccc1)NN=CC1=CC(=[N+]([O-])O)C=CC1=O.O=C(O)C(F)(F)F [NCGC00248455-01] | 4 |
| N#Cc1cnc(NS(=O)(=O)c2ccc(NC(=O)Cc3ccc(Cl)c(Cl)c3)cc2)s1.O=C(O)C(F)(F)F [NCGC00250147-02] | 4 |
